Read-outs that look alike come from different tables or passages of the source.
Legend:
Format in all cases: in vivo, mouse
[1] = Bioanalytical assessment of plasma and brain concentrations after 6 Hz assay; settings: Scn8a^N1768D/+, mouse, in vivo, SCN8A mouse 6HZ
In short: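 Blood (cardiac puncture, EDTA) and whole brains taken at end of the in vivo assay; brain homogenized in 1:1 acetonitrile/water. Plasma and homogenate extracted by acetonitrile protein precipitation with internal standard, quantified by UHPLC-ESI-MS/MS against a 1/X-weighted linear calibration.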

wild-type mice (CF-1) = assay: DC-Maximal electroshock seizure assay (DC-MES)
In short: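 Compounds given 2 hr before corneal DC electroshock; phenytoin i.p. in saline. CF1 mice (9–12 weeks): 50 mA, 60 Hz, 0.2 s; SD rats (5–6 weeks): 150 mA, 60 Hz, 0.3 s; 0.5 ms pulse width, eyes anaesthetised with proparacaine. Absence of tonic-clonic hindlimb extension scored protected (0), blinded scoring.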

Scn8a^N1768D/+ mice = assay: Modified 6 Hz psychomotor seizure assay
In short: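 Heterozygous Scn8a^N1768D/+ mice aged 5 weeks (p35) underwent a modified 6 Hz psychomotor seizure assay as an in vivo readout of NaV1.6-mediated efficacy. Compounds were given 2 hr before corneal electroshock (6 Hz, 12 mA, 3 s, 0.3-ms pulse interval) after Alcaine eye anesthesia. Blinded scoring counted generalized tonic-clonic seizure with hindlimb extension as unprotected (1), prevention as protected (0).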

[2] = Mus musculus, 2 h, read-out: brain EC50

COC[C@@H](NC(C)=O)C(=O)NCc1ccccc1 [lacosamide, Lacosamide, reference compound]
concentration at 2 h ([1]; 1 mg/kg, Study18011, 1 mg/kg, read-out: Mean [Brain]): 0.728 µM | concentration at 2 h ([1]; 1 mg/kg, Study18011, 1 mg/kg, read-out: Mean [Palsma]): 1.12 µM | concentration at 2 h ([1]; 3 mg/kg, Study18007, 3 mg/kg, read-out: Mean [Brain]): 2.84 µM | concentration at 2 h ([1]; 3 mg/kg, Study18007, 3 mg/kg, read-out: Mean [Palsma]): 3.48 µM | concentration at 2 h ([1]; 10 mg/kg, Study18007, 10 mg/kg, read-out: Mean [Brain]): 9.32 µM | concentration at 2 h ([1]; 10 mg/kg, Study18007, 10 mg/kg, read-out: Mean [Palsma]): 10.7 µM | concentration at 2 h ([1]; 10 mg/kg, Study18028, 10 mg/kg, read-out: Mean [Brain]): 7.58 µM | concentration at 2 h ([1]; 10 mg/kg, Study18028, 10 mg/kg, read-out: Mean [Palsma]): 11.8 µM | concentration at 2 h ([1]; 10 mg/kg, Study18042, 10 mg/kg, read-out: Mean [Brain]): 3.27 µM | concentration at 2 h ([1]; 10 mg/kg, Study18042, 10 mg/kg, read-out: Mean [Palsma]): 14.4 µM | concentration at 2 h ([1]; 30 mg/kg, Study18007, 30 mg/kg, read-out: Mean [Brain]): 21 µM | concentration at 2 h ([1]; 30 mg/kg, Study18007, 30 mg/kg, read-out: Mean [Palsma]): 25.2 µM | concentration at 2 h ([1]; 30 mg/kg, Study18011, 30 mg/kg, read-out: Mean [Brain]): 19.2 µM | concentration at 2 h ([1]; 30 mg/kg, Study18011, 30 mg/kg, read-out: Mean [Palsma]): 29.6 µM | concentration at 2 h ([1]; 56 mg/kg, Study18011, 56 mg/kg, read-out: Mean [Brain]): 28.3 µM | concentration at 2 h ([1]; 56 mg/kg, Study18011, 56 mg/kg, read-out: Mean [Palsma]): 44.7 µM | EC50 (wild-type mice (CF-1); [2]): 7.1 µM | WT mouse DC-MES acute Fraction of animals seizing (wild-type mice (CF-1); Study18003, 3 mg/kg): 0.625 | WT mouse DC-MES acute Fraction of animals seizing (wild-type mice (CF-1); Study18003, 10 mg/kg): 0.375 | WT mouse DC-MES acute Fraction of animals seizing (wild-type mice (CF-1); Study18003, 30 mg/kg): 0.125 | WT mouse DC-MES acute Fraction of animals seizing (wild-type mice (CF-1); Study18053, 3 mg/kg): 0.6667 | WT mouse DC-MES acute Fraction of animals seizing (wild-type mice (CF-1); Study18063, 3 mg/kg): 0.75 | EC50 (Scn8a^N1768D/+ mice; [2]): 3.3 µM | SCN8A mouse 6HZ Fraction of animals seizing (Scn8a^N1768D/+ mice; Study18007, 3 mg/kg): 0.429 | SCN8A mouse 6HZ Fraction of animals seizing (Scn8a^N1768D/+ mice; Study18007, 10 mg/kg): 0.286 | SCN8A mouse 6HZ Fraction of animals seizing (Scn8a^N1768D/+ mice; Study18007, 30 mg/kg): 0.286 | SCN8A mouse 6HZ Fraction of animals seizing (Scn8a^N1768D/+ mice; Study18011, 1 mg/kg): 0.858 | SCN8A mouse 6HZ Fraction of animals seizing (Scn8a^N1768D/+ mice; Study18011, 30 mg/kg): 0.5 | SCN8A mouse 6HZ Fraction of animals seizing (Scn8a^N1768D/+ mice; Study18011, 56 mg/kg): 0.286 | SCN8A mouse 6HZ Fraction of animals seizing (Scn8a^N1768D/+ mice; Study18028, 10 mg/kg): 0.375 | SCN8A mouse 6HZ Fraction of animals seizing (Scn8a^N1768D/+ mice; Study18042, 10 mg/kg): 0.5

From article PMC8903829 (eLife, 2022)
